According to patent US5023239A, “Sialosyl cholesterol, process for producing the same, and neuropathy remedy comprising the same” (MECT Corporation, priority 1986, dated 1991):

Columns and labels:
ddy male mice = assay: Acute toxicity test, intravenous injection; type: in vivo, mouse; conditions: ddy male mice of 45 weeks age
Description: Acute toxicity test was conducted by intravenously injecting the compounds into ddy male mice of 45 weeks age.

[1] = system: Neuroblastoma Cell, Neuro 2a Strain; assay: Effect on proliferation / neurite propagation of neuroblastoma cell, Neuro 2a strain; type: cell-based, mouse; conditions: for activity (in words): 24 hours cultivation; for minimal effective concentration: 48 hours after addition
Description: Experiments for confirming the activity of the present compound for promoting propagation of neurites will be explained below.
Effect On Proliferation of Neuroblastoma Cell, Neuro 2a Strain
Neuro 2a was floated on culture medium consisting of 90% of Dulbecco's Modified Eagle's Midium, and 10% of fetal calf serum (FCS), and containing 100 units/ml of penicillin G and 100 micro g/ml of streptomycin sulfate, and then cultivated at 37° C. in a carbon dioxide incubator containing air into which 5% of carbon dioxide was incorporated. The vessel as used was a polystyrene tray having a diameter of 60 mm. 1 to 2×10^4 of the neuroblastoma cells were implanted in each tray and cultivated for 48 hours. The FCS-containing culture was removed from the resultant cell culture. […] When 24 and 48 hours had passed after the addition of these medicines, the number of the living cells increased in the culture, the number of the neurites increased, and the length of the neurites were measured. The experiment was conducted on three trays with respect to each concentration. The resultant data were expressed by average value+standard error (S.E).

Molecule: CC(=O)NC1C(O)CC(OC2CCC3(C)C(=CCC4C3CCC3(C)C(C(C)CCCC(C)C)CCC43)C2)(C(=O)O)OC1C(O)C(O)CO [Compound (5), sodium 5-acetoamide-2-O-(5-cholesten-3-beta-yl)-3,5-dideoxy-beta-D-glycero-D-galacto-2-nonulopyranosonate]
- LD50 (ddy male mice): 291 mg/kg
- activity (in words) ([1]; 10 ng/ml): indicated activity
- Length of neurite ± S.E. ([1]; 24 hrs, 10 ng/ml): 89.4 ± 4.23 μm/cell
- Number of neurite propagated cells ([1]; 24 hrs, 10 ng/ml): 124
- Number of neurites ± S.E. ([1]; 24 hrs, 10 ng/ml): 1.3 ± 0.05 number/cell
- Rate of neurite propagation (%) ([1]; 24 hrs, 10 ng/ml): 34.3%
- Total number of cells ([1]; 24 hrs, 10 ng/ml): 361
- Length of neurite ± S.E. ([1]; 24 hrs, 100 ng/ml): 116.4 ± 5.59 μm/cell
- Number of neurite propagated cells ([1]; 24 hrs, 100 ng/ml): 156
- Number of neurites ± S.E. ([1]; 24 hrs, 100 ng/ml): 1.2 ± 0.03 number/cell
- Rate of neurite propagation (%) ([1]; 24 hrs, 100 ng/ml): 40.6%
- Total number of cells ([1]; 24 hrs, 100 ng/ml): 384
- Length of neurite ± S.E. ([1]; 24 hrs, 1 μg/ml): 130.8 ± 5.16 μm/cell
- Number of neurite propagated cells ([1]; 24 hrs, 1 μg/ml): 213
- Number of neurites ± S.E. ([1]; 24 hrs, 1 μg/ml): 1.2 ± 0.04 number/cell
- Rate of neurite propagation (%) ([1]; 24 hrs, 1 μg/ml): 53.8%
- Total number of cells ([1]; 24 hrs, 1 μg/ml): 396
- minimal effective concentration [1]: 100 ng/mL
- Length of neurite ± S.E. ([1]; 48 hrs, 10 ng/ml): 110.6 ± 4.93 μm/cell
- Number of neurite propagated cells ([1]; 48 hrs, 10 ng/ml): 226
- Number of neurites ± S.E. ([1]; 48 hrs, 10 ng/ml): 1.2 ± 0.04 number/cell
- Rate of neurite propagation (%) ([1]; 48 hrs, 10 ng/ml): 47.9%
- Total number of cells ([1]; 48 hrs, 10 ng/ml): 472
- Length of neurite ± S.E. ([1]; 48 hrs, 100 ng/ml): 135.1 ± 6.23 μm/cell
- Number of neurite propagated cells ([1]; 48 hrs, 100 ng/ml): 212
- Number of neurites ± S.E. ([1]; 48 hrs, 100 ng/ml): 1.3 ± 0.04 number/cell
- Rate of neurite propagation (%) ([1]; 48 hrs, 100 ng/ml): 50.2%
- Total number of cells ([1]; 48 hrs, 100 ng/ml): 422
- Length of neurite ± S.E. ([1]; 48 hrs, 1 μg/ml): 138.9 ± 5.39 μm/cell
- Number of neurite propagated cells ([1]; 48 hrs, 1 μg/ml): 252
- Number of neurites ± S.E. ([1]; 48 hrs, 1 μg/ml): 1.2 ± 0.03 number/cell
- Rate of neurite propagation (%) ([1]; 48 hrs, 1 μg/ml): 55.5%
- Total number of cells ([1]; 48 hrs, 1 μg/ml): 454
- growth / propagation of neurites (in words) ([1]; Neuro 2a culture): strong activity for the propagation of the neurites
- activity relative to GMl (times as high) ([1]; vs GMl, from minimal effective concentrations at 48 hours, molecular weights considered): 42 times
- activity relative to GQlb (times as high) ([1]; vs GQlb, from minimal effective concentrations at 48 hours, molecular weights considered): 27 times

Molecule: Gal (beta 1-3) GalNac (beta 1-4 ) <NAcNeu-(alpha2-3)>Gal (beta 1-4) Glc (beta 1-1)-Ceramide [GM1]
- activity (in words) [1]: do not provide any activity
- Length of neurite ± S.E. ([1]; 24 hrs, 10 ng/ml): 94.9 ± 6.64 μm/cell
- Number of neurite propagated cells ([1]; 24 hrs, 10 ng/ml): 145
- Number of neurites ± S.E. ([1]; 24 hrs, 10 ng/ml): 1.4 ± 0.05 number/cell
- Rate of neurite propagation (%) ([1]; 24 hrs, 10 ng/ml): 43.4%
- Total number of cells ([1]; 24 hrs, 10 ng/ml): 334
- Length of neurite ± S.E. ([1]; 24 hrs, 100 ng/ml): 101.1 ± 5.09 μm/cell
- Number of neurite propagated cells ([1]; 24 hrs, 100 ng/ml): 142
- Number of neurites ± S.E. ([1]; 24 hrs, 100 ng/ml): 1.4 ± 0.06 number/cell
- Rate of neurite propagation (%) ([1]; 24 hrs, 100 ng/ml): 47.8%
- Total number of cells ([1]; 24 hrs, 100 ng/ml): 297
- Length of neurite ± S.E. ([1]; 24 hrs, 1 μg/ml): 109.7 ± 6.44 μm/cell
- Number of neurite propagated cells ([1]; 24 hrs, 1 μg/ml): 140
- Number of neurites ± S.E. ([1]; 24 hrs, 1 μg/ml): 1.4 ± 0.06 number/cell
- Rate of neurite propagation (%) ([1]; 24 hrs, 1 μg/ml): 42.2%
- Total number of cells ([1]; 24 hrs, 1 μg/ml): 332
- Length of neurite ± S.E. ([1]; 24 hrs, 10 μg/ml): 89.3 ± 4.77 μm/cell
- Number of neurite propagated cells ([1]; 24 hrs, 10 μg/ml): 149
- Number of neurites ± S.E. ([1]; 24 hrs, 10 μg/ml): 1.4 ± 0.05 number/cell
- Rate of neurite propagation (%) ([1]; 24 hrs, 10 μg/ml): 45.8%
- Total number of cells ([1]; 24 hrs, 10 μg/ml): 325
- Length of neurite ± S.E. ([1]; 24 hrs, 100 μg/ml): 90.5 ± 3.88 μm/cell
- Number of neurite propagated cells ([1]; 24 hrs, 100 μg/ml): 172
- Number of neurites ± S.E. ([1]; 24 hrs, 100 μg/ml): 1.8 ± 0.06 number/cell
- Rate of neurite propagation (%) ([1]; 24 hrs, 100 μg/ml): 55.5%
- Total number of cells ([1]; 24 hrs, 100 μg/ml): 310
- minimal effective concentration [1]: 10 micro g/ml
- Length of neurite ± S.E. ([1]; 48 hrs, 10 ng/ml): 93.7 ± 5.07 μm/cell
- Number of neurite propagated cells ([1]; 48 hrs, 10 ng/ml): 194
- Number of neurites ± S.E. ([1]; 48 hrs, 10 ng/ml): 1.4 ± 0.05 number/cell
- Rate of neurite propagation (%) ([1]; 48 hrs, 10 ng/ml): 58.3%
- Total number of cells ([1]; 48 hrs, 10 ng/ml): 333
- Length of neurite ± S.E. ([1]; 48 hrs, 100 ng/ml): 108.8 ± 5.97 μm/cell
- Number of neurite propagated cells ([1]; 48 hrs, 100 ng/ml): 156
- Number of neurites ± S.E. ([1]; 48 hrs, 100 ng/ml): 1.4 ± 0.06 number/cell
- Rate of neurite propagation (%) ([1]; 48 hrs, 100 ng/ml): 44.7%
- Total number of cells ([1]; 48 hrs, 100 ng/ml): 349
- Length of neurite ± S.E. ([1]; 48 hrs, 1 μg/ml): 109.2 ± 6.09 μm/cell
- Number of neurite propagated cells ([1]; 48 hrs, 1 μg/ml): 211
- Number of neurites ± S.E. ([1]; 48 hrs, 1 μg/ml): 1.3 ± 0.04 number/cell
- Rate of neurite propagation (%) ([1]; 48 hrs, 1 μg/ml): 59.9%
- Total number of cells ([1]; 48 hrs, 1 μg/ml): 352
- Length of neurite ± S.E. ([1]; 48 hrs, 10 μg/ml): 113.8 ± 5.49 μm/cell
- Number of neurite propagated cells ([1]; 48 hrs, 10 μg/ml): 205
- Number of neurites ± S.E. ([1]; 48 hrs, 10 μg/ml): 1.3 ± 0.04 number/cell
- Rate of neurite propagation (%) ([1]; 48 hrs, 10 μg/ml): 62.1%
- Total number of cells ([1]; 48 hrs, 10 μg/ml): 330
- Length of neurite ± S.E. ([1]; 48 hrs, 100 μg/ml): 98.9 ± 5.22 μm/cell
- Number of neurite propagated cells ([1]; 48 hrs, 100 μg/ml): 193
- Number of neurites ± S.E. ([1]; 48 hrs, 100 μg/ml): 1.5 number/cell
- Rate of neurite propagation (%) ([1]; 48 hrs, 100 μg/ml): 60.9%
- Total number of cells ([1]; 48 hrs, 100 μg/ml): 317
